The target in one assay is T1, TBK1 (Homo sapiens, UniProt Q9UHD2).
T1 sequence (Q9UHD2 1-729): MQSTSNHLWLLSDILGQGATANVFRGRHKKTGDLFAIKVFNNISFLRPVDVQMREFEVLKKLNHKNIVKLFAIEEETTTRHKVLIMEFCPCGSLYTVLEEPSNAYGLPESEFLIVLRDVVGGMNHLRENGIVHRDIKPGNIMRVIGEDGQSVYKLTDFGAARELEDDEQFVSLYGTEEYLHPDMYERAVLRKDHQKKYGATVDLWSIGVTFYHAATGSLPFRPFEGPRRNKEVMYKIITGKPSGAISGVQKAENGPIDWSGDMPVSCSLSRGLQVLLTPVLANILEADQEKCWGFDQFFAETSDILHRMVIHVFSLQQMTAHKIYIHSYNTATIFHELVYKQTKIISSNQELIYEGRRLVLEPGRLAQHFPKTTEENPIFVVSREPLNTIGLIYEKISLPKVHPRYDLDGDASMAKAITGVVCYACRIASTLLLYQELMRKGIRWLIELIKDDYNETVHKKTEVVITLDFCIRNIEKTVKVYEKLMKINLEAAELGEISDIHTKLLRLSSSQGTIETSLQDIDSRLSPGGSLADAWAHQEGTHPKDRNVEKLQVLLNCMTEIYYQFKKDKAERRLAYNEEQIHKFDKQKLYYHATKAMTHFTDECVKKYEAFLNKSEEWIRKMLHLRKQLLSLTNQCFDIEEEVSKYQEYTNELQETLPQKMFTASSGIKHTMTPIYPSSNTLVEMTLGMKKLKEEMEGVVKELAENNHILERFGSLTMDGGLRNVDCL
Kind of assay: TBK biochemical assay. The settings on record: 10 point 1:4 dose response, 30 uM top concentration, 90 min at 25° C., LabChip EZ Reader II; read-out: TBK1_IC50. Summed up: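 Substrate and product were separated and quantified by microfluidic mobility-shift read (LabChip). 10 uM staurosporine served as the full-inhibition control, and the reference compound was tested from 1 uM final.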

Another assay deals with T2, IKKε (Homo sapiens, UniProt Q14164).
T2 sequence (Q14164 1-716): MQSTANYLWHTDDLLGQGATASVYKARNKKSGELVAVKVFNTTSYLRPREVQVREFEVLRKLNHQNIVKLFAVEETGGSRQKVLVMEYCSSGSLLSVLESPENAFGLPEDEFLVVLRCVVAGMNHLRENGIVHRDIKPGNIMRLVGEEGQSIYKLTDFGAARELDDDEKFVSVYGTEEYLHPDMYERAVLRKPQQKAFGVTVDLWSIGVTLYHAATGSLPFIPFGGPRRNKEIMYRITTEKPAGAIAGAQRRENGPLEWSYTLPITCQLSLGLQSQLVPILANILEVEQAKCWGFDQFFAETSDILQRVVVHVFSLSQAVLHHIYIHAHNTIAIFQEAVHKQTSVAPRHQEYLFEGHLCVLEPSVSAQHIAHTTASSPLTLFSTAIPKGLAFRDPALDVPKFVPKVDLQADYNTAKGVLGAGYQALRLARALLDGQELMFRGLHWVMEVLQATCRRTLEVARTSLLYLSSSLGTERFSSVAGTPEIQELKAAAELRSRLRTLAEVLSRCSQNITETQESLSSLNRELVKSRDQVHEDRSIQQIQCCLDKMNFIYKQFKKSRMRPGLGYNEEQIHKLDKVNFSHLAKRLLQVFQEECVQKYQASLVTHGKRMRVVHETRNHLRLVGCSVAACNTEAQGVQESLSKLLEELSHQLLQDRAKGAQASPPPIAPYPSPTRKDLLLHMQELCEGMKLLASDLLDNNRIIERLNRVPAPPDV
Description: IKKε biochemical assay. The settings on record: 10 point 1:4 dose response, 30 uM top concentration, 90 min at 25° C., LabChip EZ Reader II; read-out: IKKε_IC50. In outline: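 Compounds in 1% DMSO final were incubated with IKKε enzyme and substrate at 25° C. for 90 min, then stopped. Substrate and product peaks were resolved by LabChip EZ Reader II mobility-shift read-out. Staurosporine at 10 uM final served as the full-inhibition control.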

Turning to `COc1nc(Nc2nccc(-c3ccc(O[C@H]4CCN(C(=O)C(C)O)C[C@H]4F)c(C#N)c3)n2)ccc1N1CCN(C2COC2)CC1` (stereo partly drawn) [Example 190, 2-[[(3R,4S)-3-fluoro-1-(2-hydroxypropanoyl)piperidin-4-yl]oxy]-5-[2-([6-methoxy-5-[4-(oxetan-3-yl)piperazin-1-yl]pyridin-2-yl]amino)pyrimidin-4-yl]benzonitrile], the IC50 at TBK1 and on IKKε was under 100 nM in each case.
For `COc1nc(Nc2nccc(-c3ccc(O[C@H]4CCN(C(=O)[C@H](C)O)C[C@H]4F)c(C#N)c3)n2)ccc1N1CCN(C2COC2)CC1` [Example 116, 2-[(3R,4S)-3-Fluoro-1-((S)-2-hydroxy-propionyl)-piperidin-4-yloxy]-5-{2-[6-methoxy-5-(4-oxetan-3-yl-piperazin-1-yl)-pyridin-2-ylamino]-pyrimidin-4-yl}-benzonitrile], the IC50 on TBK1 and at IKKε was under 100 nM each time.
With `Cc1cc(N2CCN(C3COC3)CC2)ccc1Nc1nccc(-c2ccc(OC3CCN(C(=O)[C@H](C)O)CC3(F)F)c(C#N)c2)n1` (stereo partly drawn) [Example 310, 2-([3,3-difluoro-1-[(2S)-2-hydroxypropanoyl]piperidin-4-yl]oxy)-5-[2-([2-methyl-4-[4-(oxetan-3-yl)piperazin-1-yl]phenyl]amino)pyrimidin-4-yl]benzonitrile], the IC50 on TBK1 and at IKKε was under 100 nM throughout.
With `CC(O)C(=O)N1CC[C@H](Oc2ccc(-c3nc(Nc4ccc(N5CCN(C6COC6)CC5)cc4)ncc3F)cc2C#N)[C@H](F)C1` (stereo partly drawn) [Example 295, 2-{[(3R,4S)-3-fluoro-1-(2-hydroxypropanoyl)piperidin-4-yl]oxy}-5-[5-fluoro-2-({4-[4-(oxetan-3-yl)piperazin-1-yl]phenyl}amino)pyrimidin-4-yl]benzonitrile], the IC50 on TBK1 and at IKKε was under 100 nM throughout.
Take `CN1CCN(c2ccc(Nc3nccc(-c4ccc(OC5CN(C)C5)c(C#N)c4)n3)nc2)CC1` [Example 81, 2-[(1-methylazetidin-3-yl)oxy]-5-(2-[[5-(4-methylpiperazin-1-yl)pyridin-2-yl]amino]pyrimidin-4-yl)benzonitrile]: the IC50 on TBK1 and at IKKε was 1000 to 5000 nM in each case.
In the case of `COc1cc(C(=O)N(C)C)cnc1Nc1nccc(-c2ccc(OC3CCOCC3)c(C#N)c2)n1` [Example 58, 6-([4-[3-cyano-4-(oxan-4-yloxy)phenyl]pyrimidin-2-yl]amino)-5-methoxy-N,N-dimethylpyridine-3-carboxamide], the values for the IC50 on TBK1 and on IKKε were 1000 to 5000 nM and over 5000 nM, respectively.
For `COc1nc(Nc2nccc(-c3ccc(N4CC5(CCN(C(=O)[C@H](C)O)CC5)C4)c(C#N)c3)n2)ccc1N1CCN(C2COC2)CC1` [Example 314, 2-[7-((S)-2-Hydroxy-propionyl)-2,7-diaza-spiro[3.5]non-2-yl]-5-{2-[6-methoxy-5-(4-oxetan-3-yl-piperazin-1-yl)-pyridin-2-ylamino]-pyrimidin-4-yl}-benzonitrile], the IC50 on TBK1 and on IKKε was under 100 nM throughout.
On to `C[C@H](O)C(=O)N1CCC(Oc2ccc(-c3ccnc(Nc4ccccn4)n3)cc2C#N)C(F)(F)C1` (stereo partly drawn) [Example 219, 2-(3,3-difluoro-1-((S)-2-hydroxypropanoyl)piperidin-4-yloxy)-5-(2-(pyridin-2-ylamino)pyrimidin-4-yl)benzonitrile], for which the IC50 on TBK1 and at IKKε was under 100 nM throughout.
With `COc1nc(Nc2nccc(-c3ccc(OC4CCOCC4)c(C#N)c3)n2)ccc1C(=O)N[C@@H]1[C@@H]2C[C@H]1CN(C)C2` [Example 20, 6-([4-[3-cyano-4-(oxan-4-yloxy)phenyl]pyrimidin-2-yl]amino)-2-methoxy-N-[(1R,5S,6S)-3-methyl-3-azabicyclo[3.1.1]heptan-6-yl]pyridine-3-carboxamide], the IC50 on TBK1 and at IKKε was under 100 nM each time.
On to `COc1nc(Nc2nccc(-c3ccc(OC4CCN(C(=O)[C@@H](C)O)CC4(F)F)c(C#N)c3)n2)ccc1N1CCN(C2COC2)[C@H](C)C1` (stereo partly drawn) [Example 126, 2-[3,3-Difluoro-1-((R)-2-hydroxy-propionyl)-piperidin-4-yloxy]-5-{2-[6-methoxy-5-((R)-3-methyl-4-oxetan-3-yl-piperazin-1-yl)-pyridin-2-ylamino]-pyrimidin-4-yl}-benzonitrile], for which the IC50 at TBK1 and on IKKε was under 100 nM in each case.
On to `N#Cc1cc(-c2ccnc(Nc3ccc(N4CCN(C5COC5)CC4)cc3)n2)ccc1OC1CCN(C(=O)CO)CC1(F)F` (stereo not drawn) [Example 137, 2-[[3,3-difluoro-1-(2-hydroxyacetyl)piperidin-4-yl]oxy]-5-[2-([4-[4-(oxetan-3-yl)piperazin-1-yl]phenyl]amino)pyrimidin-4-yl]benzonitrile], for which the IC50 on TBK1 and on IKKε was under 100 nM in each case.
Turning to `CN1CCN(c2ccc(Nc3nccc(-c4ccc(O[C@H]5CCN(C)C[C@H]5F)c(C#N)c4)n3)nc2)CC1` [Example 84, 2-[[(3R,4S)-3-fluoro-1-methylpiperidin-4-yl]oxy]-5-(2-[[5-(4-methylpiperazin-1-yl)pyridin-2-yl]amino]pyrimidin-4-yl)benzonitrile], the IC50 on TBK1 was 100 to 1000 nM; on IKKε, under 100 nM.
Turning to `N#Cc1cc(-c2ccnc(Nc3ccc(N4CCN(C5COC5)CC4)cc3)n2)ccc1OC1CCNCC1(F)F` (stereo not drawn) [Example 136, 2-[(3,3-difluoropiperidin-4-yl)oxy]-5-[2-([4-[4-(oxetan-3-yl)piperazin-1-yl]phenyl]amino)pyrimidin-4-yl]benzonitrile], the IC50 on TBK1 and at IKKε was under 100 nM each time.
With `CN1CCN(c2ccc(Nc3nccc(-c4ccc(OC5CCOCC5)c(C#N)c4)n3)nc2)CC1` [Example 164, 5-(2-[[5-(4-methylpiperazin-1-yl)pyridin-2-yl]amino]pyrimidin-4-yl)-2-(oxan-4-yloxy)benzonitrile], the IC50 on TBK1 and at IKKε was under 100 nM in each case.
Consider `COc1nc(C(=O)N(C)C)ccc1Nc1nccc(-c2ccc(NC3CCOCC3)c(C#N)c2)n1` [Example 62, 5-[(4-[3-cyano-4-[(oxan-4-yl)amino]phenyl]pyrimidin-2-yl)amino]-6-methoxy-N,N-dimethylpyridine-2-carboxamide], for which the IC50 at TBK1 is under 100 nM; on IKKε, 100 to 1000 nM.
In the case of `C[C@H](O)C(=O)N1CCC(Oc2ccc(-c3nc(Nc4ccc(N5CCN(C6COC6)CC5)cc4)ncc3F)cc2C#N)C(F)(F)C1` (stereo partly drawn) [Example 300, 2-({3,3-difluoro-1-[(2S)-2-hydroxypropanoyl]piperidin-4-yl}oxy)-5-[5-fluoro-2-({4-[4-(oxetan-3-yl)piperazin-1-yl]phenyl}amino)pyrimidin-4-yl]benzonitrile], the IC50 at TBK1 and at IKKε was under 100 nM throughout.
Take `COc1cc(C(=O)N(C)C)ncc1Nc1nccc(-c2ccc(NC3CCOCC3)c(C#N)c2)n1` [Example 61, 5-[(4-[3-cyano-4-[(oxan-4-yl)amino]phenyl]pyrimidin-2-yl)amino]-4-methoxy-N,N-dimethylpyridine-2-carboxamide]: the IC50 on TBK1 and on IKKε was 100 to 1000 nM throughout.
In the case of `COc1nc(Nc2nccc(-c3ccc(OC4(C)CCNCC4)c(C#N)c3)n2)ccc1N1CCN(C2COC2)CC1` [Example 267, 5-{2-[6-Methoxy-5-(4-oxetan-3-yl-piperazin-1-yl)-pyridin-2-ylamino]-pyrimidin-4-yl}-2-(4-methyl-piperidin-4-yloxy)-benzonitrile], the IC50 on TBK1 and at IKKε was under 100 nM in each case.

Source of the values: patent US20230019491A1, “PYRIMIDINE TBK/IKKe INHIBITOR COMPOUNDS AND USES THEREOF” (Merck Patent GmbH, priority 2017, published 2023).
